Consider one compound from US9212196B2, “Hypophosphorous acid derivatives having antihyperalgic activity and biological applications thereof” (UNIVERSITE PARIS DESCARTES, priority 2011, dated 2015).

The target in one assay is mGlu4 (Homo sapiens (Human), UniProt Q14833). Kind of assay: Agonist activity on mGlu4 in transfected HEK293 cells, intracellular calcium release (Fluo4-AM). It counts as cell-based. The conditions noted are these: transfected cells, calcium release; read-out: mGlu4 EC50 μM (n). From the text: (§1) The EC50's are compared to those of L-AP4 (L-2-amino-4-phosphonobutyric acid) used as a reference.
mGlu4, sequence (Q14833 33-912): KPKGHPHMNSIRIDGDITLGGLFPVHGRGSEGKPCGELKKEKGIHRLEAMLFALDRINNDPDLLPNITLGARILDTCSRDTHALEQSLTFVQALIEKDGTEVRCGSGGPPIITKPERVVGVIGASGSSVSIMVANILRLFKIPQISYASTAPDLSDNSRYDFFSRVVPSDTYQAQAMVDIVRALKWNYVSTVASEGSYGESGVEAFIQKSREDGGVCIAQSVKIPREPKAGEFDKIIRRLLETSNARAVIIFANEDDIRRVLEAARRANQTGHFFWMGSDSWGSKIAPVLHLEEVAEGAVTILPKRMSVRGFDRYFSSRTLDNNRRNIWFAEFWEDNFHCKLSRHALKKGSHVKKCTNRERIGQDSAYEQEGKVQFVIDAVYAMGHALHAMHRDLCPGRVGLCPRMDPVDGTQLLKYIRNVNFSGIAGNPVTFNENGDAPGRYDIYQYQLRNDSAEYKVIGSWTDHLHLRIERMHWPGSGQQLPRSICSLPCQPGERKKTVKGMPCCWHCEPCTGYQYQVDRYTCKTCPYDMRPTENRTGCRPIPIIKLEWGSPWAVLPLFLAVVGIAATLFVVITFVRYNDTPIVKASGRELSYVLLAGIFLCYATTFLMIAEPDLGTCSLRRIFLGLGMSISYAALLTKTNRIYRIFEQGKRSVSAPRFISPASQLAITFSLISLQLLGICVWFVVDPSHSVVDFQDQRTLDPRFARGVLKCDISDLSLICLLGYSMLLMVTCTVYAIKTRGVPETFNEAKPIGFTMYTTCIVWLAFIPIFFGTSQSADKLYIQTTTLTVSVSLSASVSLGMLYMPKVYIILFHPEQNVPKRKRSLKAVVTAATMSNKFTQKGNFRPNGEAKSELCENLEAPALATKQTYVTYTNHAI
(§2) Metabotropic glutamate receptors were transiently transfected in HEK293 cells by electroporation as described elsewhere (Brabet I. et al., 1998) and plated in 96-well microplates. The high affinity glutamate transporter EAAC1 was co-transfected with the receptor in order to avoid any influence of glutamate released by the cells in the assay medium. In the experiments carried out by the inventors, Group-III mGluRs were co-transfected with a chimeric G-protein which couples the activation of the receptor to the phospholipase-C (PLC) pathway. Thus receptor activation induces production of inositol phosphate (IP) which in turn induces intracellular Ca^2+ release. Receptor activity was then determined by measurement of the IP production or Ca release as already described (Goudet C. et al., PNAS 2004). For intracellular calcium measurements, cells expressing mGluRs were loaded with Ca2+-sensitive fluorescent dye Fluo-4 AM (Invitrogen, Cergy-Pontoise, France) dissolved in Hanks' balanced salt solution (HBSS, Invitrogen, Cergy-Pontoise, France) containing 2.5 mM Probenicid (Sigma-Aldrich Chemie, Saint-Quentin Fallavier, France) for 1 h at 37° C., then washed and incubated with HBSS containing probenecid. A drug plate was prepared with the various concentrations of agonist to be tested and drug solution was added in each well after 20 s of recording. Fluorescence signals (excitation 485 nm, emission 525 nm) were measured by using the fluorescence microplate reader Flexstation III (Molecular Devices, Saint-Grégoire, France) at sampling intervals of 1.5 s for 60 s. All points are realized in triplicate.
(§3) The dose-response curves were fitted using the GraphPad Prism program and the following equation: y=[(ymax−ymin)/(1+(x/EC50)n)]+ymin where EC50 is the concentration of the compound necessary to obtain the half maximal effect and n is the Hill coefficient.
On the technique in general: Calcium flux is commonly read through the fluorescence of an indicator in the cells.

The target in another assay is mGlu8 (Homo sapiens (Human), UniProt O00222). Kind of assay: Agonist activity on mGlu8 in transfected HEK293 cells, intracellular calcium release (Fluo4-AM). It is filed as cell-based.
mGlu8, sequence (O00222 34-908): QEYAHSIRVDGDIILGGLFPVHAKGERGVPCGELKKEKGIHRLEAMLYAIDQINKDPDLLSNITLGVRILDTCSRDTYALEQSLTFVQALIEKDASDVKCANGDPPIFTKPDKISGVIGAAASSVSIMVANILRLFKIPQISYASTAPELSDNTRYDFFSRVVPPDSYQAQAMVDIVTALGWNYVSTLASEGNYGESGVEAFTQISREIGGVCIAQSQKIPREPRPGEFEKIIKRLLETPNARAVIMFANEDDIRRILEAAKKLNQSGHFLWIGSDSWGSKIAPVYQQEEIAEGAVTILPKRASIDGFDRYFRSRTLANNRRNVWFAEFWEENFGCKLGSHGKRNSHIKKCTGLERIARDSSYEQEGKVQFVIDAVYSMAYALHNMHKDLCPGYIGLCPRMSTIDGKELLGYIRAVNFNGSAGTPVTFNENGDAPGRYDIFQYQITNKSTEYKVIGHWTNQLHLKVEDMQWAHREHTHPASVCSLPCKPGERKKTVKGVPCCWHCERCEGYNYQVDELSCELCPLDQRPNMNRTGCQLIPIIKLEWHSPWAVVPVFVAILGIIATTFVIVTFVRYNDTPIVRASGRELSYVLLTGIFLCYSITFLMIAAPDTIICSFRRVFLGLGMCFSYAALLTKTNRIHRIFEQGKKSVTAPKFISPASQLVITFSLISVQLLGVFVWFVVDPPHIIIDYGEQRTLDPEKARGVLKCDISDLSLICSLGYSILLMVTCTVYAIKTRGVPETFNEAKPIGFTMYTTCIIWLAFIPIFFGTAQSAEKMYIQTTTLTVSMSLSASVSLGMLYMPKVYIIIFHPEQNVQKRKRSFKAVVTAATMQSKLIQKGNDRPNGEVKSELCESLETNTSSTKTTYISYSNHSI
Description: as §1, §2, §3

In assay [1] the test system is model of inflammation induced by carrageenan in C57BL6 mice. Kind of assay: Von Frey test in carrageenan inflammation model in mice. It is filed as in vivo, mouse. The protocol: FIG. 2 illustrates the effect of intrathecal administration of derivative 2 on the vocalization threshold to paw pressure in the carrageenan inflammatory pain model (effect of derivative 2 (0.5, 1, 5, 10 μg/rat, i.t.) on time-course of vocalization threshold to paw pressure). Morphine (10 μg/rat, i.t.) is used as a positive control.
Adult male Sprague-Dawley rats weighting 175-200 g were purchased from Charles River. C57/BL6 mice were from Elevage Janvier, and homozygous mGlu4 (−/−) and wild-type (+/+) littermates were generated from crosses between heterozygous animals. Animals were housed under controlled environmental conditions (22° C.; 55% humidity) and kept under a 12/12 h light/dark cycle, with food and water ad libitum for a week prior to start the experiments in order to acclimatize. Animal care and experiments were carried out in accordance with the Committee for Research and Ethical Issues of the IASP (Zimmermann M., 1983; Goudet C., 2008).
Mechanical allodynia and hyperalgesia were assessed using the von Frey hair filaments of 3 different bending forces (0.07 g, 0.6 g, 1.4 g). For each filament, 5 stimuli were applied with an interval of 3-5 s.

The term EC50 denotes the concentration needed to bring the measured effect to its halfway point.

“Also recorded” adds a separate entry of the source.

As for `N[C@@H](CCP(=O)(O)C(O)c1ccc(OCC(=O)O)cc1)C(=O)O` (stereo partly drawn) [Derivative 2, [((3S)-3-Amino-3-carboxy)propyl][(4-(carboxymethoxy)phenyl)hydroxymethyl]phosphinic Acid], the EC50 on mGlu4 is 0.11 ± 0.02 µM; at mGlu8 (transfected cells, calcium release, read-out: mGlu8 EC50 μM (n)) it was 29.2 ± 4.2 µM. At mGlu8 (ratio of mGlu8 EC50 to mGlu4 EC50), the “mGlu8/4 EC50 ratio” value is listed as 256. In addition, in assay [1] (10 μg/mice i.t.), the “antihyperalgesic effect in mice lacking mGluR4 receptor versus wild-type littermates” value is listed as “significantly decreased in mice lacking mGluR4 receptor; also recorded: profoundly impaired”. In addition, the “mechanical hypersensitivity measured using Von Frey filaments” value in assay [1] (C57BL6 mice, i.t.) is recorded as “dose-dependently reduced the mechanical hypersensitivity”.
